Laboratory results from ChEMBL document CHEMBL1201862, “PubChem BioAssay data set” (2004).
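The compound was tested at five concentrations on cells cultured in 96-well plates, with a 48-hour exposure period. GI50 marks 50% less growth.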 The source made the active and inactive calls. Rule as the data show it: active = GI50 up to about 1.1 µM and inactive = higher.

Columns and labels:
Assay in all cases: growth of human tumour cells (NCI), 48 h
786-0 = system: 786-0
A498 = system: A498
A549 = system: A549
COLO 205 = system: COLO 205
EKVX = system: EKVX
HL-60 = system: HL-60
HT-29 = system: HT-29
Hs-578T = system: Hs-578T
LOX IMVI = system: LOX IMVI
MDA-N = system: MDA-N
MOLT-4 = system: MOLT-4
OVCAR-4 = system: OVCAR-4
OVCAR-5 = system: OVCAR-5
SF-539 = system: SF-539
SK-OV-3 = system: SK-OV-3
SW-620 = system: SW-620
TK-10 = system: TK-10
UACC-257 = system: UACC-257
UACC-62 = system: UACC-62
RPMI-8226 = system: RPMI-8226

Measured: GI50

Fc1ccc(NC(=S)SCc2ccc3c(c2)OCO3)cc1F
inactive: 786-0 37.2 µM | A498 17.4 µM | A549 15.6 µM | COLO 205 18.9 µM | EKVX 11.7 µM | HL-60 16.7 µM | HT-29 20.2 µM | Hs-578T 26.9 µM | LOX IMVI 15.3 µM | MDA-N 17.6 µM | MOLT-4 18.7 µM | OVCAR-4 22.4 µM | OVCAR-5 11.1 µM | SF-539 22.7 µM | SK-OV-3 53.6 µM | SW-620 33 µM | TK-10 30.1 µM | UACC-257 21.1 µM | UACC-62 14.2 µM

CN1CCN(c2cc3[nH]c(-c4ccc(Cl)cc4)nc3cc2F)CC1
inactive: 786-0 20.1 µM | A498 18.2 µM | A549 17.6 µM | COLO 205 18.2 µM | EKVX 22.2 µM | HL-60 > 10 µM | Hs-578T 16.1 µM | LOX IMVI 10.5 µM | MDA-N 12.8 µM | MOLT-4 10.9 µM | OVCAR-4 22.8 µM | OVCAR-5 15.2 µM | RPMI-8226 14.1 µM | SK-OV-3 22.2 µM | SW-620 21.8 µM | TK-10 4.37 µM | UACC-257 10.8 µM | UACC-62 4.32 µM

COc1cc2ccc1OCc1cccc(n1)COc1ccc(cc1OC)/C=N\c1ccc(cc1)/N=C\2
inactive: 786-0 > 100 µM | A498 > 100 µM | A549 > 100 µM | COLO 205 > 100 µM | EKVX > 100 µM | HL-60 > 100 µM | HT-29 > 100 µM | Hs-578T 54.2 µM | LOX IMVI > 100 µM | MDA-N > 100 µM | MOLT-4 > 100 µM | OVCAR-4 > 100 µM | OVCAR-5 > 100 µM | SF-539 > 100 µM | SK-OV-3 > 100 µM | SW-620 > 100 µM | TK-10 > 100 µM | UACC-257 > 100 µM | UACC-62 > 100 µM

CC(C)(Oc1ccccc1)C(=O)Sc1c(-c2ccccc2)c(=O)n(-c2ccccc2)c(=S)n1-c1ccccc1
inactive: 786-0 31.2 µM | A498 80.9 µM | A549 43.3 µM | COLO 205 39.8 µM | EKVX > 100 µM | HL-60 25.9 µM | HT-29 50.9 µM | Hs-578T 24.2 µM | LOX IMVI 49.5 µM | MDA-N 56.8 µM | MOLT-4 36.4 µM | OVCAR-4 32.9 µM | OVCAR-5 75.3 µM | SF-539 23.8 µM | SK-OV-3 26.7 µM | SW-620 88.3 µM | TK-10 92.5 µM | UACC-257 > 100 µM | UACC-62 80 µM
